Experimental data: the NIST ThermoML archive (doi:10.1016/j.tca.2019.178334)

Experiment: excess molar enthalpy (molar enthalpy of mixing); xn = mol fraction of the nth substance listed
Conditions: 933 K, 101 kPa, Liquid, Calvet calorimetry

[Cl-].[Li+] [lithium chloride] + [Cl-].[K+]
Conditions | excess molar enthalpy [kcal/mol]
x2 = 0 | 0
x2 = 0.026 | -0.117
x2 = 0.061 | -0.239
x2 = 0.073 | -0.308
x2 = 0.105 | -0.372
x2 = 0.128 | -0.488
x2 = 0.162 | -0.542
x2 = 0.188 | -0.638
x2 = 0.214 | -0.705
x2 = 0.24 | -0.781
x2 = 0.275 | -0.861
x2 = 0.298 | -0.884
x2 = 0.33 | -0.965
x2 = 0.371 | -1.02
x2 = 0.418 | -1.06
x2 = 0.427 | -1.04
